Reference: US20090191216A1, “Antibody or a fragment thereof, having neutralizing activity against HIV” (priority 2005, published 2009)
Bridges are numbered along the chain shown (N, C = ends). Where no end group is shown, it is not given here.

Test system: HIV-1 R5 strains from clades C and D
Assay: Inhibition of HIV-1 transcytosis across HEC-1 cell line with cyclized CDR3
Type: cell-based
Conditions: cells preincubated 30 minutes at 17° C. with peptide; linear CDR3 as control

Substance: cyclized CDR3 derived from Fab clone 43: CDR3 of clone 43 H chain (SEQ ID NO:1) with flanking residues, cyclized by disulfide bridge, SEQ ID NO:12 (CARDPRYYDAWSGPQLYYYYMDVWCKG; disulfide 1-25; listed as Homo Sapiens)
- inhibition of transcytosis: more than 50%
